According to US20260284208A1, “SYSTEM” (Oxford University Innovation Limited, priority 2023, published 2026):

Test system: library of 8,380 IKZF3 degrons (ZF-eGFP/mCherry reporter) in Jurkat cells
Experiment: Pooled library screen (FACS, NGS, limma voom LogFC of positive vs negative read counts)
Type: cell-based, human
In short: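 Degron enrichment was scored by amplicon NGS of gDNA from GFP-low versus other mCherry+ cells, at >600× coverage across three independent transductions. Sorting followed 18 h exposure at 37 °C to thalidomide analog or DMSO, which set the gate; dead cells were excluded with DAPI. Single-copy integration used MOI <0.3.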

## O=C1CCC(N2C(=O)c3ccc(N4CCOCC4)cc3C2=O)C(=O)N1 (centres unmarked) [B03]
Degron-ID 4175, SEQ ID NO 3945, 46F_47W_49E_50Q_52G_53A_54S_55F_67L
  B03_logFC: 2.767
Degron-ID 4189, SEQ ID NO 3997, 46F_47W_49E_50V_52G_53A_54L_55F_67L
  B03_logFC: 2.69
Degron-ID 4212, SEQ ID NO 4019, 46F_47W_49N_50I_52G_53A_54P_55F_67L
  B03_logFC: 2.659
Degron-ID 4216, SEQ ID NO 3948, 46F_47W_49N_50I_52G_53A_54T_55F_67L
  B03_logFC: 2.757
Degron-ID 4217, SEQ ID NO 3953, 46F_47W_49N_50I_52G_53A_54V_55F_67L
  B03_logFC: 2.75
Degron-ID 4265, SEQ ID NO 3969, 46F_47W_49P_50I_52G_53A_54G_55F_67L
  B03_logFC: 2.729
Degron-ID 4267, SEQ ID NO 4028, 46F_47W_49P_50I_52G_53A_54I_55F_67L
  B03_logFC: 2.643
Degron-ID 4270, SEQ ID NO 3946, 46F_47W_49P_50I_52G_53A_54M_55F_67L
  B03_logFC: 2.765
Degron-ID 4279, SEQ ID NO 3996, 46F_47W_49P_50I_52G_53A_54Y_55F_67L
  B03_logFC: 2.691
Degron-ID 4307, SEQ ID NO 3975, 46F_47W_49P_50V_52G_53A_54I_55F_67L
  B03_logFC: 2.72
Degron-ID 4366, SEQ ID NO 3950, 46F_47Y_49D_50V_52G_53A_54H_55F_67L
  B03_logFC: 2.757
Degron-ID 4368, SEQ ID NO 4018, 46F_47Y_49D_50V_52G_53A_54K_55F_67L
  B03_logFC: 2.66
Degron-ID 4456, SEQ ID NO 4010, 46F_47Y_49N_50I_52G_53A_54T_55F_67L
  B03_logFC: 2.672
Degron-ID 4503, SEQ ID NO 4007, 46F_47Y_49P_50I_52G_53A_54E_55F_67L
  B03_logFC: 2.675
Degron-ID 4510, SEQ ID NO 3967, 46F_47Y_49P_50I_52G_53A_54M_55F_67L
  B03_logFC: 2.732
Degron-ID 4544, SEQ ID NO 4004, 46F_47Y_49P_50V_52G_53A_54F_55F_67L
  B03_logFC: 2.679
Degron-ID 4559, SEQ ID NO 4033, 46F_47Y_49P_50V_52G_53A_54Y_55F_67L
  B03_logFC: 2.636
Degron-ID 6474, SEQ ID NO 3991, 46L_47A_49P_50I_52G_53F_54R_55C_67L
  B03_logFC: 2.7
Degron-ID 6480, SEQ ID NO 4002, 46L_47C_49P_50I_52G_53F_54A_55C_67L
  B03_logFC: 2.685
Degron-ID 6494, SEQ ID NO 4012, 46L_47C_49P_50I_52G_53F_54R_55C_67L
  B03_logFC: 2.668
Degron-ID 6496, SEQ ID NO 3983, 46L_47C_49P_50I_52G_53F_54T_55C_67L
  B03_logFC: 2.713
Degron-ID 6544, SEQ ID NO 3994, 46L_47F_49P_50I_52G_53F_54F_55C_67L
  B03_logFC: 2.694
Degron-ID 6545, SEQ ID NO 3958, 46L_47F_49P_50I_52G_53F_54G_55C_67L
  B03_logFC: 2.743
Degron-ID 6547, SEQ ID NO 3973, 46L_47F_49P_50I_52G_53F_54I_55C_67L
  B03_logFC: 2.724
Degron-ID 6559, SEQ ID NO 3972, 46L_47F_49P_50I_52G_53F_54Y_55C_67L
  B03_logFC: 2.725
Degron-ID 6579, SEQ ID NO 3987, 46L_47G_49P_50I_52G_53F_54Y_55C_67L
  B03_logFC: 2.704
Degron-ID 6581, SEQ ID NO 3985, 46L_47H_49P_50I_52G_53F_54C_55C_67L
  B03_logFC: 2.71
Degron-ID 6593, SEQ ID NO 4008, 46L_47H_49P_50I_52G_53F_54Q_55C_67L
  B03_logFC: 2.674
Degron-ID 6600, SEQ ID NO 3995, 46L_47I_49P_50I_52G_53F_54A_55C_67L
  B03_logFC: 2.692
Degron-ID 6715, SEQ ID NO 3949, 46L_47Q_49P_50I_52G_53F_54S_55C_67L
  B03_logFC: 2.757
Degron-ID 6759, SEQ ID NO 4005, 46L_47S_49P_50I_52G_53F_54Y_55C_67L
  B03_logFC: 2.677
Degron-ID 6761, SEQ ID NO 4009, 46L_47T_49P_50I_52G_53F_54C_55C_67L
  B03_logFC: 2.672
Degron-ID 6793, SEQ ID NO 3980, 46L_47V_49P_50I_52G_53F_54Q_55C_67L
  B03_logFC: 2.717
Degron-ID 6803, SEQ ID NO 4032, 46L_47W_49P_50I_52G_53F_54E_55C_67L
  B03_logFC: 2.637
Degron-ID 6807, SEQ ID NO 3992, 46L_47W_49P_50I_52G_53F_54I_55C_67L
  B03_logFC: 2.695
Degron-ID 7568, SEQ ID NO 3954, 46F_47W_49E_50I_52G_53R_54K_55F_67L
  B03_logFC: 2.75
Degron-ID 7574, SEQ ID NO 3993, 46F_47W_49E_50I_52G_53R_54R_55F_67L
  B03_logFC: 2.695
Degron-ID 7699, SEQ ID NO 3976, 46L_47F_49E_50I_52G_53F_54Y_55C_67L
  B03_logFC: 2.72
Degron-ID 7894, SEQ ID NO 3947, 46L_47S_49E_50I_52G_53F_54R_55C_67L
  B03_logFC: 2.76
Degron-ID 7920, SEQ ID NO 3990, 46L_47V_49E_50I_52G_53F_54A_55C_67L
  B03_logFC: 2.702
Degron-ID 7971, SEQ ID NO 3955, 46L_47Y_49E_50I_52G_53F_54N_55C_67L
  B03_logFC: 2.749
Degron 1074 (SEQ ID NO 3496) 46F_47F_49E_50V_52G_53A_54R_55F_67L
  B03_logFC: 3.71
Degron 4088 (SEQ ID NO 3502) 46F_47W_49D_50I_52G_53A_54K_55F_67L
  B03_logFC: 3.696
Degron 4091 (SEQ ID NO 3497) 46F_47W_49D_50I_52G_53A_54N_55F_67L
  B03_logFC: 3.708
Degron 4395 (SEQ ID NO 3500) 46F_47Y_49E_50I_52G_53A_54S_55F_67L
  B03_logFC: 3.7
Degron 4420 (SEQ ID NO 3499) 46F_47Y_49E_50V_52G_53A_54A_55F_67L
  B03_logFC: 3.704
Degron 4551 (SEQ ID NO 3503) 46F_47Y_49P_50V_52G_53A_54N_55F_67L
  B03_logFC: 3.692
Degron 6814 (SEQ ID NO 3498) 46L_47W_49P_50I_52G_53F_54R_55C_67L
  B03_logFC: 3.704
Degron 7973 (SEQ ID NO 3495) 46L_47Y_49E_50I_52G_53F_54Q_55C_67L
  B03_logFC: 3.711
Degron 7975 (SEQ ID NO 3501) 46L_47Y_49E_50I_52G_53F_54S_55C_67L
  B03_logFC: 3.698
